A short description of data set [1]: Particle size distribution by laser particle size analyzer. The conditions noted are these: hemihydrate. The class given is physicochemical. From the text: The particle size distribution curves of the products in the embodiments of the present invention were all determined by Masterizer laser particle size analyzer from Malvern Panalytical (the U.K.).
The nature of data set [2]: Bulk density test. The class given is physicochemical.
Data set [3] in a line: Flowability test (angle of repose). The class given is physicochemical. The procedure:
Flowability test: The angle of repose is the maximum angle formed between the free slope of a piled powder and the horizontal plane. It is measured when the particles achieve a static state as they slide on the free slope of the piled powder and experience a balance of gravity and interparticle friction. It is the easiest way to examine the flowability of a powder. The smaller the angle of repose, the smaller the friction and the better the flowability.

The nature of data set [4]: Moisture absorption and agglomeration. Type of data set: physicochemical.
The conditions of data set [5]: prior-art product, exposed to air; cited from earlier work.

Read-outs that look alike come from different tables or passages of the source.

Data on 8 compounds can be found in patent publication US10487044B2, “Gamma-aminobutyric acid hemihydrate crystal and preparation method thereof” (priority 2016, dated 2019).

`NCCCC(=O)O` [Embodiment 1, γ-aminobutyric acid hemihydrate] returned a main particle size in data set [1] of 110 μm. The compound further gave a bulk density in data set [2] (hemihydrate) of 0.85 g/mL. This compound also came in with an angle of repose in data set [3] (hemihydrate) of 38 °. In addition, the “moisture absorption and agglomeration” value in data set [4] was “did not easily absorb moisture and agglomerate”.
As for `NCCCC(=O)O` [Embodiment 4, γ-aminobutyric acid hemihydrate], the “bulk density (in words)” value in data set [2] was “high bulk density”. The “flowability (in words)” value in data set [3] was “good flowability”. For the same compound, in data set [4], the “moisture absorption and agglomeration” value is “did not easily absorb moisture and agglomerate”.
In data set [2], `NCCCC(=O)O` [crude λ-aminobutyric acid raw material, γ-aminobutyric acid, reference compound] returned a bulk density of 0.65 g/mL. This compound yielded an angle of repose in data set [3] of 50 °.
As to `NCCCC(=O)O`, in data set [5], the hygroscopicity result is recorded as “highly hygroscopic”.
With `NCCCC(=O)O` [Embodiment 6, γ-aminobutyric acid hemihydrate], the “bulk density (in words)” value in data set [2] is listed as “high bulk density”. For the same compound, in data set [3], the “flowability (in words)” value is on record as “good flowability”. The “moisture absorption and agglomeration” value in data set [4] was “did not easily absorb moisture and agglomerate”.
In the case of `NCCCC(=O)O` [Embodiment 3, γ-aminobutyric acid hemihydrate], the “bulk density (in words)” value in data set [2] is “high bulk density”. For the same compound, in data set [3], the “flowability (in words)” value is “good flowability”. In addition, the “moisture absorption and agglomeration” value in data set [4] was “did not easily absorb moisture and agglomerate”.
As for `NCCCC(=O)O` [Embodiment 5, γ-aminobutyric acid hemihydrate], the “bulk density (in words)” value in data set [2] is listed as “high bulk density”. Further, the “flowability (in words)” value in data set [3] is “good flowability”. In addition, in data set [4], the “moisture absorption and agglomeration” value was “did not easily absorb moisture and agglomerate”.
On to `NCCCC(=O)O` [Embodiment 2, γ-aminobutyric acid hemihydrate], for which, in data set [2], the “bulk density (in words)” value is listed as “high bulk density”. For the same compound, the “flowability (in words)” value in data set [3] is on record as “good flowability”. For the same compound, in data set [4], the “moisture absorption and agglomeration” value was “did not easily absorb moisture and agglomerate”.
